Read-outs that look alike come from different tables or passages of the source. Starred links: 1 amine or outer side, 2 acyl side, 3 side chain; linkers in the order of their positions; H or OH if unused. Non-standard residues stand in square brackets, D forms with d. Residues, ends and D or L forms follow the SMILES beside them. Groups on a side chain read outwards from the residue. *: point of attachment. C20 diacid = O=C(O)CCCCCCCCCCCCCCCCCCC(=O)*; Pro(cis-4-F) = O=C(O)[C@@H]1C[C@H](F)CN1; γGlu = O=C(O)[C@H](CCC(=O)[*:2])N[*:1]; Hyp = O=C(O)[C@@H]1C[C@@H](O)CN1; Nle = CCCC[C@H](N)C(=O)O; Ac5c = NC1(C(=O)O)CCCC1; AEEA = NCCOCCOCC(=O)O
Experiments:
hCRHR2 = target: T1, hCRHR2 (Homo sapiens, UniProt Q13324); experiment: HTRF cAMP assay, determination of hCRHR2 potency (peptide libraries 5 conc., purified peptides 11 conc.); format: cell-based
T1 sequence (Q13324 1-411): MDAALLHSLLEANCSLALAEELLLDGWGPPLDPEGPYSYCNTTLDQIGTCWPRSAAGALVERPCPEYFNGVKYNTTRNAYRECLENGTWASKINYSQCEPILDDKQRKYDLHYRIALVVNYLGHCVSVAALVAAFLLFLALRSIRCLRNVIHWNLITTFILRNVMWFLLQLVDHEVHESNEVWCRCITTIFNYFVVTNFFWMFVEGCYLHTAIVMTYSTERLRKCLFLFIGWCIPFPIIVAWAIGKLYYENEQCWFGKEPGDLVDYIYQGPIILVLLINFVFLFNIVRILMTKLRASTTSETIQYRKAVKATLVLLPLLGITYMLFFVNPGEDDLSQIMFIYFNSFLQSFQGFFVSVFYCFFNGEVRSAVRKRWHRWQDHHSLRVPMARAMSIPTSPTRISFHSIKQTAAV
How it was run: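 Agonist peptides are added to suspended, freshly thawed CHO-K1 cells that stably carry the human receptor. Intracellular cAMP competes with d2-cAMP for a cryptate-tagged antibody, lowering the FRET signal. A variable-slope sigmoid curve is fitted to obtain EC50.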

hCRHR1 = target: T2, hCRHR1 (Homo sapiens, UniProt P34998); experiment: HTRF cAMP assay, determination of hCRHR1 potency (peptide libraries 5 conc., purified peptides 11 conc.); format: cell-based
T2 sequence (P34998 24-415): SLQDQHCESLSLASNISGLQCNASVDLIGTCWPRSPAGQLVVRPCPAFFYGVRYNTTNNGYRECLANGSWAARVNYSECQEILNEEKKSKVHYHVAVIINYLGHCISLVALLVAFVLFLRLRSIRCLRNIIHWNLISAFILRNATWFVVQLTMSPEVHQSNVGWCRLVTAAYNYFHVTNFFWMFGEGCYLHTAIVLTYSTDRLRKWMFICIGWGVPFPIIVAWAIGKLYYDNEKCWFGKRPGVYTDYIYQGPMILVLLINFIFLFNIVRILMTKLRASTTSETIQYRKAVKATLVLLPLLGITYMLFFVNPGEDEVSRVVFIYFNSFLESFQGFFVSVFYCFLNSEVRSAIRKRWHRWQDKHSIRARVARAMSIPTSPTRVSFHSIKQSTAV
How it was run: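 CHO-K1 cells stably expressing human CRHR1, thawed from frozen stocks just before use, were stimulated in suspension with agonist peptides. cAMP was measured by HTRF competitive immunoassay (cryptate anti-cAMP antibody vs d2-cAMP).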

[1] = library peptides, matched molecular pairs L vs Nle in position X^38, read-out: Potency hCRHR2 pEC50 (converted)
[2] = library peptides, matched molecular pairs L vs Nle in position X^38, read-out: Potency hCRHR1 pEC50 (converted)

| EC50 (hCRHR2; [1]) [nM] | EC50 (hCRHR1; [2]) [nM] | EC50 (hCRHR2; Table 3, matched molecular pairs X^38 L vs Nle, peptide library of Example 4, read-out: hCRHR2 pEC50 (converted)) [nM] | EC50 (hCRHR1; Table 3, matched molecular pairs X^38 L vs Nle, peptide library of Example 4, read-out: hCRHR1 pEC50 (converted)) [nM] | Structure (SMILES) |
| --- | --- | --- | --- | --- |
| 0.126 | 251 | – | – | CCCC[C@H](NC(=O)[C@@H](NC(=O)[C@H](CCC(=O)O)NC(=O)[C@H](C)NC(=O)[C@H](CC(N)=O)NC(=O)[C@@H](NC(=O)[C@H](CCCCNC(=O)COCCOCCNC(=O)COCCOCCNC(=O)CC[C@H](NC(=O)CC[C@H](NC(=O)CCCCCCCCCCCCCCCCCCC(=O)O)C(=O)O)C(=O)O)NC(=O)[C@H](C)NC(=O)[C@H](CCC(N)=O)NC(=O)[C@H](CCC(N)=O)NC(=O)[C@H](CCCNC(=N)N)NC(=O)[C@H](C)NC(=O)[C@H](C)NC(=O)[C@H](CCC(N)=O)NC(=O)[C@H](C)NC(=O)[C@H](CCCNC(=N)N)NC(=O)[C@H](C)NC(=O)[C@H](CCC(N)=O)NC(=O)[C@H](CCC(=O)O)NC(=O)[C@H](CC(C)C)NC(=O)[C@H](CC(C)C)NC(=O)[C@@H](NC(=O)[C@H](CCC(N)=O)NC(=O)[C@H](CC(C)C)NC(=O)[C@H](CC(C)C)NC(=O)CNC(=O)[C@@H](NC(=O)[C@@H]1CCCN1C(=O)[C@@H](NC(=O)[C@H](CC(=O)O)NC(=O)[C@H](CC(C)C)NC(=O)[C@H](CO)NC(=O)[C@H](CC(C)C)NC(=O)[C@@H](NC(=O)[C@@H](N)[C@@H](C)CC)C(C)C)C(C)C)[C@@H](C)CC)[C@@H](C)CC)[C@@H](C)O)[C@@H](C)CC)C(=O)N[C@@H](C)C(=O)N[C@@H](CCC(=O)O)C(=O)N[C@H](C(N)=O)C(C)C [compound 55] (H-IVLSLDVPIGLLQILLEQARAQAARQQAK([AEEA-AEEA-γGlu-γGlu-C20 diacid])TNAEI[Nle]AEV-NH2) |
| 0.1 | 158 | – | – | CCCC[C@H](NC(=O)[C@@H](NC(=O)[C@H](CCC(=O)O)NC(=O)[C@H](C)NC(=O)[C@H](CC(N)=O)NC(=O)[C@@H](NC(=O)[C@H](CCCCNC(=O)COCCOCCNC(=O)COCCOCCNC(=O)CC[C@H](NC(=O)CC[C@H](NC(=O)CCCCCCCCCCCCCCCCCCC(=O)O)C(=O)O)C(=O)O)NC(=O)[C@H](C)NC(=O)[C@H](CCC(N)=O)NC(=O)[C@H](CCC(=O)O)NC(=O)[C@H](CCCNC(=N)N)NC(=O)[C@H](CCC(N)=O)NC(=O)[C@H](C)NC(=O)[C@H](CCCNC(=N)N)NC(=O)[C@H](C)NC(=O)[C@H](CCCNC(=N)N)NC(=O)[C@H](C)NC(=O)[C@H](CCC(N)=O)NC(=O)[C@H](CCC(=O)O)NC(=O)[C@H](CC(C)C)NC(=O)[C@H](CC(C)C)NC(=O)[C@@H](NC(=O)[C@H](CCC(N)=O)NC(=O)[C@H](CC(C)C)NC(=O)[C@H](CC(C)C)NC(=O)CNC(=O)[C@@H](NC(=O)[C@@H]1CCCN1C(=O)[C@@H](NC(=O)[C@H](CC(=O)O)NC(=O)[C@H](CC(C)C)NC(=O)[C@H](CO)NC(=O)[C@H](CC(C)C)NC(=O)[C@@H](NC(=O)[C@@H](N)[C@@H](C)CC)C(C)C)C(C)C)[C@@H](C)CC)[C@@H](C)CC)[C@@H](C)O)[C@@H](C)CC)C(=O)N[C@@H](C)C(=O)N[C@@H](CCC(=O)O)C(=O)N[C@H](C(N)=O)[C@@H](C)CC [compound 65] (H-IVLSLDVPIGLLQILLEQARARAQREQAK([AEEA-AEEA-γGlu-γGlu-C20 diacid])TNAEI[Nle]AEI-NH2) |
| – | – | 0.398 | 25.1 | CCCC[C@H](NC(=O)[C@@H](NC(=O)[C@H](CCC(=O)O)NC(=O)[C@H](C)NC(=O)[C@H](CC(N)=O)NC(=O)[C@@H](NC(=O)[C@H](CCCCNC(=O)COCCOCCNC(=O)COCCOCCNC(=O)CC[C@H](NC(=O)CC[C@H](NC(=O)CCCCCCCCCCCCCCCCCCC(=O)O)C(=O)O)C(=O)O)NC(=O)[C@H](C)NC(=O)[C@H](CCC(N)=O)NC(=O)[C@H](CCC(=O)O)NC(=O)[C@H](CCCNC(=N)N)NC(=O)[C@H](CC(C)C)NC(=O)[C@H](C)NC(=O)[C@H](CCCNC(=N)N)NC(=O)[C@H](C)NC(=O)[C@H](CCCNC(=N)N)NC(=O)[C@H](C)NC(=O)[C@H](CCC(N)=O)NC(=O)[C@H](CCC(=O)O)NC(=O)[C@H](CC(C)C)NC(=O)[C@H](CC(C)C)NC(=O)[C@@H](NC(=O)[C@H](CCC(N)=O)NC(=O)[C@H](CC(C)C)NC(=O)[C@H](CC(C)C)NC(=O)CNC(=O)[C@@H](NC(=O)[C@@H]1CCCN1C(=O)[C@@H](NC(=O)[C@H](CC(=O)O)NC(=O)[C@H](CC(C)C)NC(=O)[C@H](CO)NC(=O)[C@H](CC(C)C)NC(=O)[C@@H](NC(=O)[C@@H](N)[C@@H](C)CC)C(C)C)C(C)C)[C@@H](C)CC)[C@@H](C)CC)[C@@H](C)O)[C@@H](C)CC)C(=O)N[C@@H](C)C(=O)N[C@@H](CCC(=O)O)C(=O)N[C@H](C(N)=O)C(C)C [SEQ ID NO: 40] (H-IVLSLDVPIGLLQILLEQARARALREQAK([AEEA-AEEA-γGlu-γGlu-C20 diacid])TNAEI[Nle]AEV-NH2) |
| 0.251 | 2 | – | – | CCCC[C@H](NC(=O)[C@@H](NC(=O)[C@H](CCC(=O)O)NC(=O)[C@H](C)NC(=O)[C@H](CC(N)=O)NC(=O)[C@@H](NC(=O)[C@H](CCCCNC(=O)COCCOCCNC(=O)COCCOCCNC(=O)CC[C@H](NC(=O)CC[C@H](NC(=O)CCCCCCCCCCCCCCCCCCC(=O)O)C(=O)O)C(=O)O)NC(=O)[C@H](C)NC(=O)[C@H](CCC(N)=O)NC(=O)[C@H](CCC(=O)O)NC(=O)[C@H](CCCNC(=N)N)NC(=O)[C@H](C)NC(=O)[C@@H](NC(=O)[C@H](CCCNC(=N)N)NC(=O)[C@H](C)NC(=O)[C@H](CCCNC(=N)N)NC(=O)[C@H](C)NC(=O)[C@H](CCC(N)=O)NC(=O)[C@H](CCC(=O)O)NC(=O)[C@H](CC(C)C)NC(=O)[C@H](CC(C)C)NC(=O)[C@@H](NC(=O)[C@H](CCC(N)=O)NC(=O)[C@H](CC(C)C)NC(=O)[C@H](CC(C)C)NC(=O)CNC(=O)[C@@H](NC(=O)[C@@H]1C[C@@H](O)CN1C(=O)[C@@H](NC(=O)[C@H](CC(=O)O)NC(=O)[C@H](CC(C)C)NC(=O)[C@H](CO)NC(=O)[C@H](CC(C)C)NC(=O)[C@@H](NC(=O)[C@@H](N)[C@@H](C)CC)C(C)C)C(C)C)[C@@H](C)CC)[C@@H](C)CC)C(C)C)[C@@H](C)O)[C@@H](C)CC)C(=O)N[C@@H](C)C(=O)N[C@@H](CCC(=O)O)C(=O)N[C@H](C(N)=O)C(C)C [compound 85] (H-IVLSLDV[Hyp]IGLLQILLEQARARVAREQAK([AEEA-AEEA-γGlu-γGlu-C20 diacid])TNAEI[Nle]AEV-NH2) |
| 0.316 | 2.51 | – | – | CCCC[C@H](NC(=O)[C@@H](NC(=O)[C@H](CCC(=O)O)NC(=O)[C@H](C)NC(=O)[C@H](CC(N)=O)NC(=O)[C@@H](NC(=O)[C@H](CCCCNC(=O)COCCOCCNC(=O)COCCOCCNC(=O)CC[C@H](NC(=O)CC[C@H](NC(=O)CCCCCCCCCCCCCCCCCCC(=O)O)C(=O)O)C(=O)O)NC(=O)[C@H](C)NC(=O)[C@H](CCC(N)=O)NC(=O)[C@H](CCC(=O)O)NC(=O)[C@H](CCCNC(=N)N)NC(=O)[C@H](C)NC(=O)[C@H](C)NC(=O)[C@H](CCCNC(=N)N)NC(=O)[C@H](C)NC(=O)[C@H](CCCNC(=N)N)NC(=O)[C@H](C)NC(=O)[C@H](CCC(N)=O)NC(=O)[C@H](CCC(=O)O)NC(=O)[C@H](CC(C)C)NC(=O)[C@H](CC(C)C)NC(=O)[C@@H](NC(=O)[C@H](CCC(N)=O)NC(=O)[C@H](CC(C)C)NC(=O)[C@H](CC(C)C)NC(=O)CNC(=O)[C@@H](NC(=O)[C@@H]1C[C@H](F)CN1C(=O)C1(NC(=O)[C@H](CC(=O)O)NC(=O)[C@H](CC(C)C)NC(=O)[C@H](CO)NC(=O)[C@H](CC(C)C)NC(=O)[C@@H](NC(=O)[C@@H](N)[C@@H](C)CC)C(C)C)CCCC1)[C@@H](C)CC)[C@@H](C)CC)[C@@H](C)O)[C@@H](C)CC)C(=O)N[C@@H](C)C(=O)N[C@@H](CCC(=O)O)C(=O)N[C@H](C(N)=O)C(C)C [compound 87] (H-IVLSLD[Ac5c][Pro(cis-4-F)]IGLLQILLEQARARAAREQAK([AEEA-AEEA-γGlu-γGlu-C20 diacid])TNAEI[Nle]AEV-NH2) |
